Assay results from patent US7348400B2 (priority 2001, dated 2008).

Assays:
nAChR = assay type: binding, bovine
[1] = test system: unmyelinated primary afferent sensory nerves; details: rat, in vivo

C[N+]1(C)CCN(c2ccccc2)CC1.[I-] [DMPP, 1,1-dimethyl-4-phenylpiperazinium iodide]
displacement of 3H-epibatidine binding (nAChR): displaced

Clc1ccc(C2CC3CCC2N3)cn1 (stereo not drawn) [^3H-epibatidine, epibatidine]
Hill coefficient of 3H-epibatidine binding (nAChR): 1.08

C[N+](C)(C)CCOC(N)=O [carbachol]
displacement of 3H-epibatidine binding (nAChR): displaced

Nc1cc[nH]c(=O)n1 [cytosine]
displacement of 3H-epibatidine binding (nAChR): displaced

CN1CCCC1c1cccnc1 (stereo not drawn) [nicotine]
displacement of 3H-epibatidine binding (nAChR): displaced

ω-conotoxin GVIA
inhibition of the vascular response to LFES of sensory nerves [1]: significant inhibition
